The record followed here is PubChem BioAssay AID492982 (Sanford-Burnham Center for Chemical Genomics, 2010).

Activity calls are given as the source filed them.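 Rule for the calls: active = mean EC50 below 10 µM; inactive = the rest.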 Some results are limits rather than exact numbers.

This test deals with Type-1 angiotensin II receptor (Homo sapiens) (UniProt P30556). The experiment in a line: AT1 receptor agonists, beta-arrestin recruitment, SAR follow-up, selectivity assay for APJ agonist project, cell-based, CHO-K1 PathHunter, luminescence, set 3 (AID 492982). As to conditions: CHO-K1 AGTR1 PathHunter beta-arrestin, 90 min.
Type-1 angiotensin II receptor (Homo sapiens), sequence (P30556 whole entry, looked up): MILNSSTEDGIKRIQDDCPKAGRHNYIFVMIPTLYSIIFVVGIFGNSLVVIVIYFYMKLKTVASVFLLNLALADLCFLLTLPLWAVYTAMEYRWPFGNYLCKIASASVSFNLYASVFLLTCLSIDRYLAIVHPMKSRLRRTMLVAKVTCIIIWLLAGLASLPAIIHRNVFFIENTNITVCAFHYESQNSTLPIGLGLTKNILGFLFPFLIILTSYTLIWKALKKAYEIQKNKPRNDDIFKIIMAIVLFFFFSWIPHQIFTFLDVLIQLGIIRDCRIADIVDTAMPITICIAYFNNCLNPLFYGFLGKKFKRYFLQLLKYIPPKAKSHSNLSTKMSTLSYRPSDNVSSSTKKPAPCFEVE
A word on the EC50: it is the concentration needed to bring the measured effect to its halfway point. Consider `CC1=CC(=O)C(C(C)C)=C/C1=N/OS(=O)(=O)c1ccc(F)cc1`, for which the EC50 is > 79 µM (inactive).

Turning to `CC1=CC(=O)C(C(C)C)=C/C1=N/OS(=O)(=O)c1ccc(C#N)cc1`, the EC50 is > 79 µM (inactive).

On to `CC1=CC(=O)C(C(C)C)=C/C1=N/OS(=O)(=O)c1ccc(C(C)C)cc1`, for which the EC50 is > 79 µM (inactive).
